Experimental data taken from patent US20190183963A1, “PROCESS FOR THE SYNCHRONIZATION OF OVULATION FOR TIMED BREEDING WITHOUT HEAT DETECTION” (priority 2003, published 2019).

Experiments:
Type in all cases: in vivo, swine
postpartum sows = test: Single timed deslorelin in SAIB injection 96 hours post-weaning, single timed insemination without estrus detection
Method: Approximately 170 postpartum sows were randomly divided into two equal groups comprised of controls and treated. Following weaning, the controls were detected for estrus and bred following the normal standard operating procedures for the farms on which they resided. The treated sows received a 50 mcg dose of deslorelin in SAIB at 96 hours post-weaning and were bred with a single insemination 28+/−2 hours later with no regard to estrus detection. The sows were examined for pregnancy by ultrasound at 21 days and slaughtered around 28 days post breeding. The entire reproductive tract was removed and corpora lutea and embryos were counted.

mature postpartum sows = test: Intravulvar deslorelin in SAIB at estrus detection, AI breeding of mature postpartum sows; settings: 50 μg intravulvar at first estrus detection
Method: Sows were assigned randomly in blocks of two to either control or to be injected intravulvar with 50 mcg of deslorelin in SAIB at the time of estrus detection for sows first detected in estrus in the a.m. and 12 hours later for those first detected in estrus in the p.m. Treated animals were bred AI upon detected estrus and again 24 hours later if still in estrus. Controls received a saline injection on first detected estrus behavior estrus detection and were bred according to the farm's normal procedures.

[1] = test system: ovariectomized estrogen primed gilt model; test: Dose response study of deslorelin in SAIB, LH release determined by RIA; settings: single injection of 50 mcg
Method: A dose response study was performed using deslorelin in SAIB in an ovariectomized estrogen primed gilt model (Barb, et al. (1999) Proceed. Int'l. Symp. Control. Rel. Bioact. Mater., 26).

Structure (SMILES): CCNC(=O)[C@@H]1CCCN1C(=O)[C@H](CCCN=C(N)N)NC(=O)[C@H](CC(C)C)NC(=O)[C@@H](Cc1c[nH]c2ccccc12)NC(=O)[C@H](Cc1ccc(O)cc1)NC(=O)[C@H](CO)NC(=O)[C@H](Cc1c[nH]c2ccccc12)NC(=O)[C@H](Cc1cnc[nH]1)NC(=O)[C@@H]1CCC(=O)N1 [Deslorelin, deslorelin]
- Sows Pregnant (postpartum sows; 50 mcg at 96 hours post-weaning, single insemination 28+/-2 hours later, 84 in group, ultrasound at 21 days): 60
- pregnancy rates (in words) (postpartum sows; single timed injection post-weaning, single timed insemination, no estrus detection): normal pregnancy rates
- Length of Estrus (Hrs.) (mature postpartum sows; AI, AI again if in estrus the next day): 40.81 (n = 69) Hrs.
- Live piglet number per litter, greater in Deslorelin versus Saline sows (mature postpartum sows; difference to saline control, listed as deslorelin in SAIB): 0.6
- time at which LH returned to base level [1]: ≤ 18 h
- LH peak relative to normal value ([1]; normal value from Hansel et al. 1973): about twice normal value
